Laboratory results reported in US12144791B2, “KRAS agonists, pharmaceutical compositions, and uses in managing cancer” (Emory University, priority 2019, dated 2024).

Assays:
[1] = test system: A549 and H157; test: Annexin V/PI apoptosis, KRA-533 alone or with 3-MA; format: cell-based, human; settings: 48 h, in combination with KRA-533
Procedure: To determine whether autophagy plays a role in apoptosis induced by KRA-533, apoptosis was measured by FACS analysis of Annexin V/PI staining following treatments of A549 and H157 with KRA533 alone or in combination with autophagy inhibitor 3-MA for 48 h.

[2] = test system: A549 and H157 cells; test: Western blot of autophagy marker p62 with or without chloroquine; format: cell-based, human; settings: 48 h, in combination with KRA-533
Procedure: To assess whether the autophagy inhibitor regulates KRA-533-induced autophagy formation, A549 and H157 cells were treated with KRA-533 in the absence or presence of autophagy inhibitor chloroquine for 48 h, followed by Western blot analysis of the autophagy marker p62.

Structure (SMILES) | KRA-533-induced apoptosis, 3-MA added [1] | p62 expression, chloroquine added to KRA-533 [2]
Cn1cnc(N)c2ncnc1-2 [3-MA, 3-methyladenine] | enhanced KRA-533-induced apoptosis | 
CCN(CC)CCCC(C)Nc1ccnc2cc(Cl)ccc12 (centres unmarked) [chloroquine, reference compound] |  | restored p62 expression by blocking KRA-533-induced p62 degradation
